From the NIST ThermoML archive (doi:10.1016/j.jct.2015.03.001)

Tests used:
[1] = refractive index (Na D-line) (dimensionless); xn = mol fraction of the nth substance listed; conditions: 99 kPa, Liquid, Abbe refractometer
[2] = relative permittivity at various frequencies (dimensionless); xn = mol fraction of the nth substance listed; conditions: 99 kPa, Liquid, Frequency=2 MHz, Parallel plate capacitor

CCCCCl [1-chlorobutane] + CCCCCC
Conditions	refractive index, 283.15 K	refractive index, 298.15 K	refractive index, 313.15 K	relative permittivity, 283.15 K	relative permittivity, 298.15 K	relative permittivity, 313.15 K
[1], x2 = 0	1.4075	1.3995	1.39131	–	–	–
[1], x2 = 0.0534	1.40565	1.39762	1.38941	–	–	–
[1], x2 = 0.1022	1.404	1.39595	1.38772	–	–	–
[1], x2 = 0.2056	1.40063	1.39253	1.38428	–	–	–
[1], x2 = 0.3039	1.39755	1.38941	1.38115	–	–	–
[1], x2 = 0.3985	1.39477	1.38661	1.37832	–	–	–
[1], x2 = 0.5023	1.39187	1.38367	1.37537	–	–	–
[1], x2 = 0.6042	1.38921	1.38099	1.37267	–	–	–
[1], x2 = 0.7026	1.38679	1.37855	1.37024	–	–	–
[1], x2 = 0.8041	1.38445	1.37621	1.36788	–	–	–
[1], x2 = 0.9082	1.38227	1.37401	1.3657	–	–	–
[1], x2 = 0.9471	1.3815	1.37324	1.36493	–	–	–
[2], x2 = 0	–	–	–	7.552	7.157	6.757
[2], x2 = 0.0476	–	–	–	7.176	6.821	6.456
[2], x2 = 0.0989	–	–	–	6.775	6.461	6.13
[2], x2 = 0.1968	–	–	–	6.057	5.8	5.526
[2], x2 = 0.3016	–	–	–	5.335	5.13	4.901
[2], x2 = 0.3968	–	–	–	4.722	4.553	4.37
[2], x2 = 0.5024	–	–	–	4.101	3.968	3.824
[2], x2 = 0.6034	–	–	–	3.567	3.458	3.348
[2], x2 = 0.6982	–	–	–	3.11	3.027	2.94
[2], x2 = 0.808	–	–	–	2.63	2.567	2.506
[2], x2 = 0.9029	–	–	–	2.259	2.217	2.176
[2], x2 = 0.9447	–	–	–	2.103	2.07	2.04
